# Experimental data from patent US12685312B2, “Sulfonamide apyrase inhibitors” (Texas Crop Science, Inc., priority 2022, dated 2026).
# Test system: apyrase
# Experiment: Screen for apyrase inhibitors (Method 1, in vitro phosphate-release absorbance assay)
# Assay type: biochemical
# Conditions: inhibitor conc at 1 mM stock, 1 hr room temperature, absorbance 630 nm; rounded average of two assay results
# Procedure, shortened: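 Phosphate-release colorimetric assay (Windsor method) in 60 mM Hepes, 3 mM MgCl2, 3 mM CaCl2, 3 mM ATP, pH 6.5, with compound or DMSO control added. Released phosphate developed with ammonium molybdate and ascorbic acid/TCA, then stopped with citrate/acetic acid.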
row,SMILES,% Inhibition of Apyrase [%]
1,"O=C(Nc1cccc(S(=O)(=O)Nc2ccccc2F)c1)c1cccs1 [I-776, N-(3-(N-(2-fluorophenyl)sulfamoyl)phenyl)thiophene-2-carboxamide]",1
2,"CN(c1ccccc1)S(=O)(=O)c1ccccc1C(=O)Nc1ccc(Cl)cc1F [I-808, N-(4-chloro-2-fluorophenyl)-2-(N-methyl-N-phenylsulfamoyl)benzamide]",80
3,"CN(c1ccccc1)S(=O)(=O)c1ccccc1C(=O)Nc1ccc2c(c1)OCO2 [I-809, N-(benzo[d][1,3]dioxol-5-yl)-2-(N-methyl-N-phenylsulfamoyl)benzamide]",77
4,"CN(c1ccccc1)S(=O)(=O)c1ccccc1C(=O)N1CCCc2ccccc21 [I-810, N-methyl-N-phenyl-2-(1,2,3,4-tetrahydroquinoline-1-carbonyl)benzenesulfonamide]",75
5,"CN(c1ccccc1)S(=O)(=O)c1ccccc1C(=O)Nc1ccc(C#N)cc1 [I-811, N-(4-cyanophenyl)-2-(N-methyl-N-phenylsulfamoyl)benzamide]",74
6,"O=C1Cc2cccc(NS(=O)(=O)c3ccc(Br)cc3)c2N1 [I-812, 4-bromo-N-(2-oxoindolin-7-yl)benzenesulfonamide]",54
7,"O=C(Nc1cc(Cl)ccc1NS(=O)(=O)c1ccccc1F)c1ccc2c(c1)OCO2 [I-813, N-(5-chloro-2-((2-fluorophenyl)sulfonamido)phenyl)benzo[d][1,3] dioxole-5-carboxamide]",44
8,"CN(c1ccccc1)S(=O)(=O)c1ccccc1C(=O)Nc1cccc(C(N)=O)c1 [I-814, N-(3-carbamoylphenyl)-2-(N-methyl-N-phenylsulfamoyl)benzamide]",39
9,"CN(C(=O)c1ccccc1S(=O)(=O)N(C)c1ccccc1)c1ccccc1 [I-815, N-methyl-2-(N-methyl-N-phenylsulfamoyl)-N-phenylbenzamide]",37
10,"CN(c1ccccc1)S(=O)(=O)c1ccccc1C(=O)Nc1ccc(C(N)=O)cc1 [I-816, N-(4-carbamoylphenyl)-2-(N-methyl-N-phenylsulfamoyl)benzamide]",29
11,"Cc1ccc(C(=O)Nc2ccccc2S(=O)(=O)Nc2ccccc2)cc1F [I-817, 3-fluoro-4-methyl-N-(2-(N-phenylsulfamoyl)phenyl)benzamide]",64
12,"COc1ccc(NS(=O)(=O)c2cc(C)ccc2NC(=O)c2cc(C)oc2C)cc1 [I-818, N-(2-(N-(4-methoxyphenyl)sulfamoyl)-4-methylphenyl)-2,5-dimethylfuran-3-carboxamide]",60
13,"CCOc1ccc(NS(=O)(=O)c2c(C)cccc2NC(=O)c2ccccc2OC)cc1 [I-820, N-(2-(N-(4-ethoxyphenyl)sulfamoyl)-3-methylphenyl)-2-methoxybenzamide]",57
14,"CCOc1ccc(NS(=O)(=O)c2c(C)cccc2NC(=O)c2ccc(Cl)cc2)cc1 [I-821, 4-chloro-N-(2-(N-(4-ethoxyphenyl)sulfamoyl)-3-methylphenyl)benzamide]",56
15,"COc1ccc(NC(=O)c2cccc(S(=O)(=O)N3CC(C)CC(C)C3)c2)c(S(=O)(=O)Nc2ccccc2Cl)c1 (centres unmarked) [I-822, N-(2-(N-(2-chlorophenyl)sulfamoyl)-4-methoxyphenyl)-3-((3,5-dimethylpiperidin-1-yl)sulfonyl)benzamide]",54
16,"Cc1ccc(NC(=O)c2sccc2C)c(S(=O)(=O)Nc2ccc(I)cc2)c1 [I-823, N-(2-(N-(4-iodophenyl)sulfamoyl)-4-methylphenyl)-3-methylthiophene-2-carboxamide]",53

row,SMILES,% Inhibition of Apyrase [%]
1,"CN(C1CCCCC1)S(=O)(=O)c1ccccc1NC(=O)c1c(F)cccc1F [I-824, N-(2-(N-cyclohexyl-N-methylsulfamoyl)phenyl)-2,6-difluorobenzamide]",52
2,"CCOc1ccc(NS(=O)(=O)c2c(C)cccc2NC(=O)c2ccc(Oc3ccccc3)cc2)cc1 [I-825, N-(2-(N-(4-ethoxyphenyl)sulfamoyl)-3-methylphenyl)-4-phenoxybenzamide]",48
3,"COc1ccc(NS(=O)(=O)c2cc(OC)ccc2NC(=O)c2c(OC)cccc2OC)cc1 [I-827, 2,6-dimethoxy-N-(4-methoxy-2-(N-(4-methoxyphenyl)sulfamoyl)phenyl)benzamide]",39
4,"O=C(Nc1ccccc1NS(=O)(=O)c1cccs1)c1cccc(Cl)c1 [I-828, 3-chloro-N-(2-(thiophene-2-sulfonamido)phenyl)benzamide]",65
5,"O=C1CN(S(=O)(=O)c2ccc(Cl)cc2)c2ccccc2N1 [I-829, 4-((4-chlorophenyl)sulfonyl)-3,4-dihydroquinoxalin-2(1H)-one]",63
6,"O=C(Nc1ccccc1NS(=O)(=O)c1cccs1)c1ccc(Br)cc1 [I-830, 4-bromo-N-(2-(thiophene-2-sulfonamido)phenyl)benzamide]",60
7,"COc1ccc([N+](=O)[O-])cc1S(=O)(=O)Nc1ccccc1NC(=O)c1ccc(C(C)(C)C)cc1 [I-831, 4-(tert-butyl)-N-(2-((2-methoxy-5-nitrophenyl)sulfonamido)phenyl)benzamide]",59
8,"O=C(Nc1ccccc1NS(=O)(=O)c1cccs1)c1ccc(Cl)cc1 [I-832, 4-chloro-N-(2-(thiophene-2-sulfonamido)phenyl)benzamide]",58
9,"O=C(Nc1ccccc1NS(=O)(=O)c1ccc(F)cc1)c1cccc(S(=O)(=O)C(F)(F)F)c1 [I-833, N-(2-((4-fluorophenyl)sulfonamido)phenyl)-3-((trifluoromethyl)sulfonyl)benzamide]",58
10,"O=C(Nc1cc(Cl)ccc1NS(=O)(=O)c1ccccc1F)c1ccc(NC(=O)C2CC2)cc1 [I-834, N-(5-chloro-2-((2-fluorophenyl)sulfonamido)phenyl)-4-(cyclopropanecarboxamido)benzamide]",54
11,"O=C(Nc1ccccc1NS(=O)(=O)c1cccs1)c1cc(Br)ccc1F [I-835, 5-bromo-2-fluoro-N-(2-(thiophene-2-sulfonamido)phenyl)benzamide]",52
12,"O=C(Nc1ccccc1NS(=O)(=O)c1cccs1)c1ccc(C(F)(F)F)cc1 [I-836, N-(2-(thiophene-2-sulfonamido)phenyl)-4-(trifluoromethyl)benzamide]",49
13,"O=C(Nc1ccccc1NS(=O)(=O)c1cccs1)c1ccc(Cl)cc1F [I-837, 4-chloro-2-fluoro-N-(2-(thiophene-2-sulfonamido)phenyl)benzamide]",35
14,"CC(C)(C)c1ccc(C(=O)Nc2ccccc2NS(=O)(=O)c2cccc(S(N)(=O)=O)c2)cc1 [I-838, 4-(tert-butyl)-N-(2-((3-sulfamoylphenyl)sulfonamido)phenyl) benzamide]",29
15,"O=C(Nc1ccccc1NS(=O)(=O)c1ccc(F)cc1)c1ccc(Cl)cc1 [I-839, 4-chloro-N-(2-((4-fluorophenyl)sulfonamido)phenyl)benzamide]",23
16,"O=C(Nc1ccccc1NS(=O)(=O)c1cccs1)c1cc(Cl)ccc1F [I-840, 5-chloro-2-fluoro-N-(2-(thiophene-2-sulfonamido)phenyl)benzamide]",18
